Measurements: patent US20080312164A1 (priority 2006, published 2008)
Marks after values point to notes of the source that are not given here.

What was measured:
[1] = tested on: NCI-H460 cells; test: Calcein AM cytotoxicity assay, NCI-H460; assay type: cell-based; conditions: Homo sapiens; NCI-H460, Calcein AM, 72 h; read-out: IC50
Description: (§1) Five serial 1:2 dilutions were made with anhydrous DMSO at 100× the final concentration used in the assay.

[2] = tested on: NmuMG mouse mammary normal epithelial cells; test: Calcein AM cytotoxicity assay, NmuMG; assay type: cell-based; conditions: Epithelial cell, NmuMG, Calcein AM, 72 h, read-out: IC50
Description: as §1

[3] = tested on: HCT-116 cells; test: Cell Titer-Glo cytotoxicity assay, HCT-116; assay type: cell-based; conditions: Homo sapiens; HCT-116, Cell Titer-Glo, 72 h; read-out: IC50
Description: as §1

[4] = tested on: Hep3B cells; test: Calcein AM cytotoxicity assay, Hep3B; assay type: cell-based; conditions: Homo sapiens, Calcein AM, 72 h, read-out: IC50
Description: as §1

[5] = tested on: MCF7 cells; test: Calcein AM cytotoxicity assay, MCF7; assay type: cell-based; conditions: Homo sapiens; MCF7, Calcein AM, 72 h; read-out: IC50
Description: as §1

[6] = tested on: NCI-H460 cells; test: Cell Titer-Glo cytotoxicity assay, NCI-H460; assay type: cell-based, human; conditions: for IC50: Homo sapiens, NCI-H460, Cell Titer-Glo, 72 h, read-out: IC50
Description: as §1

[7] = tested on: SK-OV-3 cells; test: Calcein AM cytotoxicity assay, SK-OV-3; assay type: cell-based; conditions: Homo sapiens; SK-OV-3, Calcein AM, 72 h; read-out: IC50
Description: as §1

[8] = tested on: NCI/ADR RES cells; test: Calcein AM cytotoxicity assay, NCI/ADR-RES; assay type: cell-based; conditions: Homo sapiens, Calcein AM, 72 h, read-out: IC50
Description: as §1

[9] = tested on: NmuMG mouse mammary normal epithelial cells; test: Cell Titer-Glo cytotoxicity assay, NmuMG; assay type: cell-based; conditions: Mus musculus, Epithelial cell; NmuMG, Cell Titer-Glo, 72 h; read-out: IC50
Description: as §1

[10] = tested on: Du145 cells; test: Cell Titer-Glo cytotoxicity assay, Du145; assay type: cell-based; conditions: Homo sapiens, DU-145; Du145, Cell Titer-Glo, 72 h; read-out: IC50
Description: as §1

[11] = tested on: human cancer cell lines; test: Cytotoxicity across the panel of human cancer cell lines (average, high-throughput assays); assay type: cell-based; conditions: for IC50 / Cancerous Average IC50 / Average IC50 in Cancer Cell Lines: average across eight human cancer cell lines, MTT (HT-29) values excluded; for IC50: read-out: Cancerous Average IC50 / Average IC50 in Cancer Cell Lines
Description: as §1

[12] = tested on: SF-268 cells; test: Calcein AM cytotoxicity assay, SF-268; assay type: cell-based; conditions: Homo sapiens; SF-268, Calcein AM, 72 h; read-out: IC50
Description: as §1

[13] = tested on: SF-268 cells; test: Cell Titer-Glo cytotoxicity assay, SF-268; assay type: cell-based; conditions: Homo sapiens; SF-268, Cell Titer-Glo, 72 h; read-out: IC50
Description: as §1

[14] = tested on: SK-OV-3 cells; test: Cell Titer-Glo cytotoxicity assay, SK-OV-3; assay type: cell-based; conditions: Homo sapiens; SK-OV-3, Cell Titer-Glo, 72 h; read-out: IC50
Description: as §1

[15] = tested on: HT-29 cells; test: MTT cytotoxicity assay, HT-29; assay type: cell-based; conditions: Homo sapiens; HT-29, MTT, 24 h; read-out: IC50
Description: The IC50 value for each library member represents at least twelve replicates of dose-response experiments conducted over five concentrations. […] In this assay, live cells were distinguished by the intracellular enzymatic activity that converts the cell-permeable molecule MTT to strongly colored formazan crystals, which are retained within live cells and absorb light at 570 nm.
MTT Cytotoxicity Assay. HT-29 cell lines were maintained in RPMI medium 1640 supplemented with 10% (wt/vol) FBS and 1% penicillin-streptomycin (PS) (100 units/mL and 100 μg/mL). Cells were harvested by trypsinization using 0.25% trypsin and 0.1% EDTA and plated at a density of 2,000-5,000 cells per well of each 96-well microtiter plate. Cells were grown for 24 h at 37° C., with 5% CO2/95% air in a humidified incubator to allow cell attachment to occur before compound addition. Library members were stored at −20° C. under desiccating conditions before the assay. Library member stocks (1000×) were prepared in falcon tubes (BD Biosciences). Five dilutions were made with DMSO at 1000× the final concentration used in the assay. The 1000× stocks (3 μL) were diluted with complete culture medium (3 mL). Each plate contained twelve replicates of cells treated with 0.1% DMSO in complete cell culture medium that served as an individual negative control. Library member stocks (1×, 200 μL) were added to aspirated cells and replicated twelve times on each plate. Cells were incubated with the library members for 24 h before optical density reading. Test plates were removed from the incubator and washed once in sterile PBS to remove serum containing library members. Freshly-made 10×MTT solution in sterile PBS (5 mg/mL) was diluted 1:10 in serum-free culture medium and was sterilized using a 0.2 μm filter. Diluted MTT solution (1×, 50 μL) was added to each well and the plates were incubated in the dark for 2 h. Test plates were centrifuged at 1800×g for 5 min at 4° C. using a Beckman GPR centrifuge. MTT solution was removed by aspiration and 100 μL DMSO was added to each well to lyse cells and solubilize formazan crystals. Test plates were incubated in the dark at room temperature for 10 min. Plates were read for optical density at 570 nm.
IC50 Calculations. For each library member, at least three dose-response experiments were conducted on separate plates. […] To calculate IC50, percent inhibitions were plotted as a function of log[concentration] and then fit to a four-parameter logistic model that allowed for a variable Hill slope by using XLFIT 4.1 (ID Business Solutions, Emeryville, Calif.).

[16] = tested on: MCF7 cells; test: Cell Titer-Glo cytotoxicity assay, MCF7; assay type: cell-based, human; conditions: for IC50: Homo sapiens, MCF7, Cell Titer-Glo, 72 h, read-out: IC50
Description: as §1

[17] = tested on: NCI/ADR RES cells; test: Cell Titer-Glo cytotoxicity assay, NCI/ADR-RES; assay type: cell-based, human; conditions: for IC50: Homo sapiens, NCI/ADR-RES, Cell Titer-Glo, 72 h, read-out: IC50
Description: as §1

[18] = tested on: HCT-116 cells; test: Calcein AM cytotoxicity assay, HCT-116; assay type: cell-based; conditions: Homo sapiens; HCT-116, Calcein AM, 72 h; read-out: IC50
Description: as §1

[19] = tested on: Hep3B cells; test: Cell Titer-Glo cytotoxicity assay, Hep3B; assay type: cell-based; conditions: Homo sapiens, Cell Titer-Glo, 72 h, read-out: IC50
Description: as §1

[20] = tested on: Du145 cells; test: Calcein AM cytotoxicity assay, Du145; assay type: cell-based; conditions: Homo sapiens, DU-145; Du145, Calcein AM, 72 h; read-out: IC50
Description: as §1

S=C=NCc1ccc(Oc2ccccc2)cc1 [Compound 36, 1-(isothiocyanatomethyl)-4-phenoxybenzene]
IC50 [1]: 4.47 µM | IC50 [2]: < 12.5 µM | IC50 [3]: 3.55 µM | IC50 [4]: 7.17 µM | IC50 [5]: 6.34 µM | IC50 [6]: 9.12 µM | IC50 [7]: 3.93 µM | IC50 [8]: 3.93 µM | IC50 [9]: 187 µM | IC50 [10]: 8.24 µM | further fold increase in potency from multiple phenyl rings ([11]; average IC50 compared with single-ring 23 and 38): ~2 fold | IC50 [11]: 4.84 µM | IC50 [12]: 6.17 µM | IC50 [13]: 5.06 µM | IC50 [14]: 3.99 µM | IC50 [15]: 37.6 µM | IC50 [16]: 6.16 µM | IC50 [17]: 3.3 µM | IC50 [18]: 4.19 µM | IC50 [19]: 3.95 µM | IC50 [20]: 12.2 µM

S=C=N[C@H]1CCCc2ccccc21 [Compound 31, (S)-1-isothiocyanato-1,2,3,4-tetrahydronaphthalene]
IC50 [1]: 25.4 µM | IC50 [2]: 18.6 µM | IC50 [3]: 12.2 µM | IC50 [4]: 13.1 µM | IC50 [5]: 14.5 µM | IC50 [6]: 31.6 µM | IC50 [7]: > 30 µM | IC50 [8]: 25.1 µM | IC50 [9]: 15.4 µM | IC50 [10]: 17.4 µM | IC50 [11]: 17.2 µM | IC50 [12]: 8.51 µM | IC50 [13]: 10.5 µM | IC50 [14]: 12.7 µM | IC50 [15]: > 50 µM | IC50 [16]: 14.4 µM | IC50 [17]: 30.9 µM | IC50 [18]: 33 µM | IC50 [19]: 20.1 ± 0.53 µM | IC50 [20]: 12.4 µM

S=C=NCc1ccc2c(c1)OCO2 [Compound 29, 5-(isothiocyanatomethyl)benzo[d][1,3]dioxole]
IC50 [1]: 9.59 µM | IC50 [2]: < 12.5 µM | IC50 [3]: 4.77 µM | IC50 [4]: 3.9 µM | IC50 [5]: 3.15 µM | IC50 [6]: 11.5 µM | IC50 [7]: 2.79 µM | IC50 [8]: 6.39 µM | IC50 [9]: 17 µM | IC50 [10]: 6.24 µM | IC50 [11]: 5.77 µM | IC50 [12]: 2.55 µM | IC50 [13]: 3.92 µM | IC50 [14]: 4.44 µM | IC50 [15]: 30.3 µM | IC50 [16]: 2.51 µM | IC50 [17]: 9.77 µM | IC50 [18]: > 20 µM | IC50 [19]: 4.3 µM | IC50 [20]: 2.18 µM

S=C=NCc1cccc2ccccc12 [Compound 30, 1-(isothiocyanatomethyl)naphthalene]
IC50 [1]: 12.6 µM | IC50 [2]: 13.8 µM | IC50 [3]: 4.55 µM | IC50 [4]: 15.2 µM | IC50 [5]: < 3.13 µM | IC50 [6]: 13.3 µM | IC50 [7]: 3.22 µM | IC50 [8]: 8.93 µM | IC50 [9]: 21.4 µM | IC50 [10]: 16.8 µM | IC50 [11]: 9.16 µM | IC50 [12]: 2 µM | IC50 [13]: 3.39 µM | IC50 [14]: 4.89 µM | IC50 [15]: > 50 µM | IC50 [16]: 2.27 µM | IC50 [17]: 9.71 µM | IC50 [18]: > 20 µM | IC50 [19]: 19.8 µM | IC50 [20]: 8.31 µM

S=C=NCC1CCCCC1 [Compound 18, (isothiocyanatomethyl)cyclohexane]
IC50 [1]: 48.1 µM | IC50 [2]: 22.5 µM | IC50 [3]: 20.9 µM | IC50 [4]: 42.1 µM | IC50 [5]: > 30 µM | IC50 [6]: > 50 µM | IC50 [7]: 29.1 µM | IC50 [8]: > 50 µM | IC50 [9]: 14.8 µM | IC50 [10]: 24.4 µM | Cancerous Average IC50 / Average IC50 in Cancer Cell Lines [11]: 29.31^d μM | IC50 [11]: 29.3 µM | IC50 [12]: 15.1 µM | IC50 [13]: 15.4 µM | IC50 [14]: 33.7 µM | IC50 [15]: > 50 µM | IC50 [16]: 33.3 µM | IC50 [17]: > 50 µM | IC50 [18]: 21.9 µM | IC50 [19]: 29.3 µM | IC50 [20]: 18.7 µM

CC(C)(C)CN=C=S [Compound 16, 1-isothiocyanato-2,2-dimethylpropane]
IC50 [1]: > 50 µM | IC50 [2]: 49.4 µM | IC50 [3]: 35 µM | IC50 [4]: > 50 µM | IC50 [5]: > 50 µM | IC50 [6]: 30.3 µM | IC50 [7]: > 50 µM | IC50 [8]: > 50 µM | IC50 [9]: 26.8 µM | IC50 [10]: > 50 µM | IC50 [11]: > 50 µM | IC50 [12]: > 50 µM | IC50 [13]: > 50 µM | IC50 [14]: > 50 µM | IC50 [15]: > 50 µM | IC50 [16]: > 50 µM | IC50 [17]: > 50 µM | IC50 [18]: > 50 µM | IC50 [19]: > 50 µM | IC50 [20]: > 50 µM

COc1cccc(CN=C=S)c1OC [Compound 27]
IC50 [1]: 15.8 µM | IC50 [2]: 5.59 µM | IC50 [3]: 6.72 µM | IC50 [4]: 1.37 µM | IC50 [5]: 5.81 µM | IC50 [6]: 16.1 µM | IC50 [7]: 2.55 µM | IC50 [8]: 5.61 µM | IC50 [9]: 3.78 µM | IC50 [10]: 8.24 µM | IC50 [12]: 4.26 µM | IC50 [13]: 3.21 µM | IC50 [14]: 5.47 µM | IC50 [16]: 3.22 µM | IC50 [17]: 20.8 µM | IC50 [18]: < 1.88 µM | IC50 [19]: 4.87 µM | IC50 [20]: 2.46 µM

S=C=N[C@@H]1CCCc2ccccc21 [Compound 32, (R)-1-isothiocyanato-1,2,3,4-tetrahydronaphthalene]
IC50 [1]: 18.7 µM | IC50 [2]: 17.2 µM | IC50 [3]: 9.05 µM | IC50 [4]: < 3.13 µM | IC50 [5]: 3.88 µM | IC50 [6]: 13.3 µM | IC50 [7]: 5.18 µM | IC50 [9]: 17 µM | IC50 [10]: 8.66 µM | Cancerous Average IC50 / Average IC50 in Cancer Cell Lines [11]: 8.27^g μM | IC50 [11]: 8.27 µM | fold more potent than 23 ([11]; in general, across cell lines): ~1.2 fold | fold more potent than the S-enantiomer 31 ([11]; in general, across cell lines): approximately 2.0 fold | IC50 [12]: 5.75 µM | IC50 [13]: 7.73 µM | IC50 [14]: 7.74 µM | IC50 [15]: 20.4 µM | IC50 [16]: 7.83 µM | IC50 [18]: 12.5 µM | IC50 [19]: 3.59 ± 0.16 µM | IC50 [20]: 5.27 µM

C[S@+]([O-])CCCCN=C=S [D-sulforaphane]
% bioactive (relative to L-sulforaphane) ([6]; NCI-H460, inferred from racemate 13 versus 2): 14% | % bioactive (relative to L-sulforaphane) ([16]; MCF7, inferred from racemate 13 versus 2): 0% | % bioactive (relative to L-sulforaphane) ([17]; NCI/ADR RES, inferred from racemate 13 versus 2): 9%
